# Reference: US20160370379A1, “BLOOD-BASED BIOMARKER FOR CANCER” (J-PHARMA CO., LTD., priority 2014, published 2016)
# How the values were obtained:
# LAT1 = target: T1, LAT1 (Homo sapiens, UniProt Q01650); test: Free amino acid concentration in blood serum of cancer patients at BSC stage administered inhibitor agent; format: in vivo
# T1 construct: from tissue; host or cells: Solid tumours (pancreas, colon, gall bladder cancer with metastases) in living patients
# Method: Immediately after collecting blood from patients having gastric cancer [100 samples, average age (lowest value-highest value) 66.1 (31 to 89 years old), sex ratio 72:28], pancreas cancer [27, 70.3 (56 to 81) 13:14], or bile duct cancer [6, 70.5 (68 to 75) 5:1] and healthy control with no cancer [12, 50.8 (29 to 73) 11:1], blood serum was isolated and stored in a deep freezer (−80° C.) during a period until determination. The concentration of seven types of amino acids (histidine, isoleucine, leucine, methionine, tryptophan, valine, and tyrosine) was measured by mass analysis, and the measurement result was compared to the value obtained from blood of a healthy control. The concentration of each amino acid was represented as relative value of each case, with the mean value from the healthy control being 100%. The percentage was compared between the cancer patient and healthy control.
# A predetermined clinical test (test and experiment) was registered with an administration bureau, and after obtaining an approval of the institutional review board (IRB) of a site management organization, patients were selected and blood serum for analysis was collected, stored, and analyzed. The patient as a subject carried solid tumors for which standard treatments for cancer are ineffective or are intolerable, and they were in a state generally referred to as a BSC stage. […]
# [1] = test system: gastric cancer cell line 44As3-11; test: Amino acid concentration in culture medium of gastric cancer cell line with LAT1 inhibitor added; format: cell-based; conditions: 44As3-11 culture, inhibitor added at each concentration, medium collected 0-97 hrs (FIG. 2b)
# Method: (§1) Each of the cancer cell lines 44As3-11 (gastric cancer cell line), T3M-4 (pancreas cancer cell line), and MIAPaCa-2 (pancreas cancer cell line) was used. By using a 6 well plate, culture was performed at 37° C. with 5×10^4 cells in 3 mL (10% FBS, L-Glu+PS in RPMI1640). The culture medium was collected at 0, 24, 48, 72, and 97 hrs and centrifuged at 1,000 rpm. The supernatant (1.0 mL) was then stored in a deep freezer (−80° C.) during a period until determination. Eight kinds of amino acids (including phenylalanine in addition to the aforementioned histidine, isoleucine, leucine, methionine, tryptophan, valine, and tyrosine) were measured by mass analysis. Each culture was performed in triplet and, by measuring the sample, the concentration of each amino acid was represented as mean value±standard deviation, and then compared among the groups. Furthermore, after adding an anticancer agent (O-(5-amino-2-phenylbenzoxazol-7-yl)methyl-3,5-dichloro-L-tyrosine) at each concentration to the culture medium, the property of inhibiting the decrease in amino acid concentration in the culture medium was observed.
# (§2) 3) As for the statistical processing, Mann-Whitney U test was used for comparison between two groups, and those having a risk ratio of 0.05 or less were determined to be a significant difference.
# [2] = test system: pancreas cancer cell line T3M-4; test: Amino acid concentration in culture medium of pancreas cancer cell line with LAT1 inhibitor added; format: cell-based; conditions: T3M-4 culture, inhibitor added at each concentration, medium collected 0-97 hrs (FIG. 3b)
# Method: as §1, §2
# T1 sequence (Q01650 whole entry): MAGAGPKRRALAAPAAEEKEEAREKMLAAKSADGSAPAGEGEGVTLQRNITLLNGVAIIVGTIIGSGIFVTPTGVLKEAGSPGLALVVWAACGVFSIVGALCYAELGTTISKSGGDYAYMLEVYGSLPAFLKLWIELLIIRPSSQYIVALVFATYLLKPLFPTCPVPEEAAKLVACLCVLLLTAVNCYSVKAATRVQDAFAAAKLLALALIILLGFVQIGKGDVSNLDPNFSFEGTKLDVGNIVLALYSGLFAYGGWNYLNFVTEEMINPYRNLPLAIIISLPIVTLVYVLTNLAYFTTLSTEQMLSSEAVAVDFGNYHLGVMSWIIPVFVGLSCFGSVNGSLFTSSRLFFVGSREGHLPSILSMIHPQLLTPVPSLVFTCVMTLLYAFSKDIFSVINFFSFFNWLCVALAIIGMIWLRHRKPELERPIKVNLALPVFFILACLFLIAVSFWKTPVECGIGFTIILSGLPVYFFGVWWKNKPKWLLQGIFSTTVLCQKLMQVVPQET
# T1 sequence (P08195 102-630 partner): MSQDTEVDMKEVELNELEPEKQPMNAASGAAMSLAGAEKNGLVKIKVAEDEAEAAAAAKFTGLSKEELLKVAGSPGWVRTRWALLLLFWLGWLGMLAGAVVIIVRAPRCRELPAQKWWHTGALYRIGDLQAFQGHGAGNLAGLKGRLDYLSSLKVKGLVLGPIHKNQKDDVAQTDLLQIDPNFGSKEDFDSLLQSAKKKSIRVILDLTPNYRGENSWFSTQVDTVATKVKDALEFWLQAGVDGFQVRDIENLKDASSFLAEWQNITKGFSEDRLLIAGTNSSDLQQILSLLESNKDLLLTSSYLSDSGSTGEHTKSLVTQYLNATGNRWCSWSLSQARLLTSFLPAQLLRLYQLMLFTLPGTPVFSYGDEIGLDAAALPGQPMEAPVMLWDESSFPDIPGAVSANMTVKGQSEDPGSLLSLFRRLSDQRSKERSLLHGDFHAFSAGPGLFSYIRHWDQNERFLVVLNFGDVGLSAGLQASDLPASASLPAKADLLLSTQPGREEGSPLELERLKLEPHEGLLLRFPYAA
structure (smiles),measurement,setting,value
"Nc1cc(COc2c(Cl)cc(C[C@H](N)C(=O)O)cc2Cl)c2oc(-c3ccccc3)nc2c1 [LAT1 inhibitor, O-(5-amino-2-phenylbenzoxazol-7-yl)methyl-3,5-dichloro-L-tyrosine]",concentration of each amino acid in blood serum after single administration versus before administration,"LAT1; patients at BSC stage, 12 mg/m^2/day, 25.5 hours after start of single administration (FIGS. 4a, 4b)",higher than the value before the administration
same,relative blood concentration of eight amino acids before versus after single administration,"LAT1; subjects 102 and 104, healthy control mean = 100, Student's t test (FIG. 4c)",significant difference between cases before and after the single administration
same,inhibition of the decrease in concentration of eight amino acids in the culture medium,[1],property of inhibiting amino acid decrease in a pharmaceutical concentration dependent manner was shown
same,inhibition of the decrease in concentration of eight amino acids in the culture medium,[2],property of inhibiting amino acid decrease in a pharmaceutical concentration dependent manner was shown
